Laboratory results from paper PMC4450297, “Screening Active Compounds from Garcinia Species Native to China Reveals Novel Compounds Targeting the STAT/JAK Signaling Pathway” (BioMed Research International, 2015).

Columns and labels:
Test in all cases: Cell panel screen (CellTiter-Glo)
Type in all cases: cell-based, human
C3A = C3A (Liver), 20 micromolar, 72 hrs
Experimental: (§1) All cells were obtained from the cell bank of the American Type Culture Collection (ATCC) and cultured in the supplier's recommended media supplemented with 10% FBS. The cell panel screen was measured using the CellTiter-Glo assay (Promega, Madison, WI) following a standard protocol. Briefly, cancer cells were seeded in 96-well plates and cultured overnight at 37°C with or without 5% CO2 in an incubator. Each compound was dissolved with limited DMSO and diluted to a certain concentration with culture medium and then added to the corresponding well of the cell plate. The final concentration of compound was 20 μM. The control cells (without treatment) received the same amount of DMSO and were incubated under the same conditions. After 72 h cultivation, 100 μL of the CellTiter-Glo reagent was added directly to each well for 10-minute incubation. The plate was then read on a FlexStation 3 microplate luminometer (Molecular Devices, USA) to monitor the luminescence signal generated by the luciferase-catalyzed reaction of luciferin and ATP. The percent of growth inhibition was calculated using the following formula: (untreated cells − treated cells)/(untreated cells − background without cells) ∗ 100.

HCC1937 = HCC1937 (Breast), 20 micromolar, 72 hrs
Experimental: as §1

Bel-7402 = Bel-7402 (Liver), 20 micromolar, 72 hrs
Experimental: as §1

C8166 = C8166 (Leukemia), 20 micromolar, 72 hrs
Experimental: as §1

CW-2 = CW-2 (Colon), 20 micromolar, 72 hrs
Experimental: as §1

T98G = T98G (Brain), 20 micromolar, 72 hrs
Experimental: as §1

SW13 = SW13 (Adrenal gland), 20 micromolar, 72 hrs
Experimental: as §1

CCF-STTG1 = CCF-STTG1 (Brain), 20 micromolar, 72 hrs
Experimental: as §1

HEC-1-A = HEC-1-A (Uterus), 20 micromolar, 72 hrs
Experimental: as §1

TCCSUP = TCCSUP (Urinary bladder), 20 micromolar, 72 hrs
Experimental: as §1

HCC1395 = HCC1395 (Breast), 20 micromolar, 72 hrs
Experimental: as §1

NCI-H1770 = NCI-H1770 (Lung), 20 micromolar, 72 hrs
Experimental: as §1

A704 = A704 (Kidney), 20 micromolar, 72 hrs
Experimental: as §1

NCI-H28 = NCI-H28 (Lung), 20 micromolar, 72 hrs
Experimental: as §1

J82 = J82 (Urinary bladder), 20 micromolar, 72 hrs
Experimental: as §1

ZR-75-30 = ZR-75-30 (Breast), 20 micromolar, 72 hrs
Experimental: as §1

M059J = M059J (Brain), 20 micromolar, 72 hrs
Experimental: as §1

ChaGo-K-1 = ChaGo-K-1 (Lung), 20 micromolar, 72 hrs
Experimental: as §1

NCI-H1694 = NCI-H1694 (Lung), 20 micromolar, 72 hrs
Experimental: as §1

Colo 205 = settings: Colo 205, 20 micromolar, 72 hrs
Experimental: as §1

Panc 03.27 = Panc 03.27 (Pancreas), 20 micromolar, 72 hrs
Experimental: as §1

RL95 = RL95 (Uterus), 20 micromolar, 72 hrs
Experimental: as §1

HCC1599 = HCC1599 (Breast), 20 micromolar, 72 hrs
Experimental: as §1

NCI-H1623 = NCI-H1623 (Lung), 20 micromolar, 72 hrs
Experimental: as §1

HCC1569 = HCC1569 (Breast), 20 micromolar, 72 hrs
Experimental: as §1

A498 = A498 (listed under Lung), 20 micromolar, 72 hrs
Experimental: as §1

MSTO-211-H = MSTO-211-H (Lung), 20 micromolar, 72 hrs
Experimental: as §1

HGC-27 = HGC-27 (Stomach), 20 micromolar, 72 hrs
Experimental: as §1

T47D = T47D (Breast), 20 micromolar, 72 hrs
Experimental: as §1

BT-474 = BT-474 (Breast), 20 micromolar, 72 hrs
Experimental: as §1

BT-549 = BT-549 (Breast), 20 micromolar, 72 hrs
Experimental: as §1

NCI-H2347 = NCI-H2347 (Lung), 20 micromolar, 72 hrs
Experimental: as §1

NCI-H2405 = NCI-H2405 (Lung), 20 micromolar, 72 hrs
Experimental: as §1

NCI-H524 = NCI-H524 (Lung), 20 micromolar, 72 hrs
Experimental: as §1

HPAF-II = HPAF-II (Pancreas), 20 micromolar, 72 hrs
Experimental: as §1

HT-1197 = HT-1197 (Urinary bladder), 20 micromolar, 72 hrs
Experimental: as §1

[1] = Homo sapiens, read-out: Percent Inhibition

Question: With CC(C)=CCc1c(O)cc2oc3c(CC=C(C)C)c(O)c(O)c(CC=C(C)C)c3c(=O)c2c1O [bn-1, Garcinone E] as the compound, how does the inhibition at 20 µM (C3A; [1]) read?
Answer: The inhibition at 20 µM was 90%.

Question: What about the inhibition at 20 µM (HCC1937; [1]) of the same compound?
Answer: Its inhibition at 20 µM is 97%.

Question: What about the inhibition at 20 µM (Bel-7402; [1]) of the same compound?
Answer: The inhibition at 20 µM was 98%.

Question: And the inhibition at 20 µM (C8166; [1])?
Answer: Its inhibition at 20 µM is 99%.

Question: What about the inhibition at 20 µM (CW-2; [1]) of the same compound?
Answer: The inhibition at 20 µM was 99%.

Question: And the inhibition at 20 µM (T98G; [1])?
Answer: The inhibition at 20 µM was 100%.

Question: What about the inhibition at 20 µM (SW13; [1]) of the same compound?
Answer: The inhibition at 20 µM was 97%.

Question: What about the inhibition at 20 µM (CCF-STTG1; [1]) of the same compound?
Answer: Its inhibition at 20 µM is 89%.

Question: What about the inhibition at 20 µM (HEC-1-A; [1]) of the same compound?
Answer: Its inhibition at 20 µM is 87%.

Question: What about the inhibition at 20 µM (TCCSUP; Homo sapiens, TCC-SUP, read-out: Percent Inhibition) of the same compound?
Answer: Its inhibition at 20 µM is 97%.

Question: What about the inhibition at 20 µM (HCC1395; [1]) of the same compound?
Answer: The inhibition at 20 µM was 100%.

Question: And the inhibition at 20 µM (NCI-H1770; [1])?
Answer: The inhibition at 20 µM was 93%.

Question: And the inhibition at 20 µM (A704; [1])?
Answer: Its inhibition at 20 µM is 98%.

Question: And the inhibition at 20 µM (NCI-H28; [1])?
Answer: The inhibition at 20 µM was 95%.

Question: What about the inhibition at 20 µM (J82; [1]) of the same compound?
Answer: The inhibition at 20 µM was 98%.

Question: What about the inhibition at 20 µM (ZR-75-30; [1]) of the same compound?
Answer: Its inhibition at 20 µM is 99%.

Question: What about the inhibition at 20 µM (M059J; [1]) of the same compound?
Answer: Its inhibition at 20 µM is 95%.

Question: And the inhibition at 20 µM (ChaGo-K-1; [1])?
Answer: Its inhibition at 20 µM is 99%.

Question: What about the inhibition at 20 µM (NCI-H1694; [1]) of the same compound?
Answer: Its inhibition at 20 µM is 100%.

Question: What about the inhibition at 20 µM (Colo 205; [1]) of the same compound?
Answer: Its inhibition at 20 µM is 98%.

Question: And the inhibition at 20 µM (Panc 03.27; Homo sapiens, PANC-03-27, read-out: Percent Inhibition)?
Answer: Its inhibition at 20 µM is 90%.

Question: What about the inhibition at 20 µM (RL95; [1]) of the same compound?
Answer: Its inhibition at 20 µM is 99%.

Question: And the inhibition at 20 µM (HCC1599; [1])?
Answer: Its inhibition at 20 µM is 98%.

Question: And the inhibition at 20 µM (NCI-H1623; [1])?
Answer: The inhibition at 20 µM was 91%.

Question: And the inhibition at 20 µM (HCC1569; [1])?
Answer: Its inhibition at 20 µM is 96%.

Question: What about the inhibition at 20 µM (A498; [1]) of the same compound?
Answer: Its inhibition at 20 µM is 98%.

Question: And the inhibition at 20 µM (MSTO-211-H; [1])?
Answer: Its inhibition at 20 µM is 98%.

Question: And the inhibition at 20 µM (HGC-27; [1])?
Answer: The inhibition at 20 µM was 99%.

Question: What about the inhibition at 20 µM (T47D; [1]) of the same compound?
Answer: The inhibition at 20 µM was 82%.

Question: What about the inhibition at 20 µM (BT-474; [1]) of the same compound?
Answer: The inhibition at 20 µM was 87%.

Question: What about the inhibition at 20 µM (BT-549; [1]) of the same compound?
Answer: Its inhibition at 20 µM is 98%.

Question: What about the inhibition at 20 µM (NCI-H2347; [1]) of the same compound?
Answer: The inhibition at 20 µM was 79%.

Question: What about the inhibition at 20 µM (NCI-H2405; [1]) of the same compound?
Answer: Its inhibition at 20 µM is 93%.

Question: What about the inhibition at 20 µM (NCI-H524; [1]) of the same compound?
Answer: The inhibition at 20 µM was 100%.

Question: What about the inhibition at 20 µM (HPAF-II; [1]) of the same compound?
Answer: The inhibition at 20 µM was 90%.

Question: And the inhibition at 20 µM (HT-1197; Homo sapiens, HT1197, read-out: Percent Inhibition)?
Answer: The inhibition at 20 µM was 97%.

Question: What does the source list for CC(C)=CCc1c(O)cc2oc3cc(O)c(O)c(CCC(C)(C)O)c3c(=O)c2c1O [bn-16, Garcinone C]?
Answer: Percent Inhibition (C3A): 43%; Percent Inhibition (HCC1937): 80%; Percent Inhibition (Bel-7402): 91%; Percent Inhibition (C8166): 88%; Percent Inhibition (CW-2): 95%; Percent Inhibition (T98G): 91%; Percent Inhibition (SW13): 96%; Percent Inhibition (CCF-STTG1): 65%; Percent Inhibition (HEC-1-A): 61%; Percent Inhibition (TCCSUP): 88%; Percent Inhibition (HCC1395): 94%; Percent Inhibition (NCI-H1770): 87%; Percent Inhibition (A704): 62%; Percent Inhibition (NCI-H28): 71%; Percent Inhibition (J82): 85%; Percent Inhibition (ZR-75-30): 94%; Percent Inhibition (M059J): 78%; Percent Inhibition (ChaGo-K-1): 91%; Percent Inhibition (NCI-H1694): 99%; Percent Inhibition (Colo 205): 97%; Percent Inhibition (Panc 03.27): 86%; Percent Inhibition (RL95): 69%; Percent Inhibition (HCC1599): 94%; Percent Inhibition (NCI-H1623): 67%; Percent Inhibition (HCC1569): 81%; Percent Inhibition (A498): 65%; Percent Inhibition (MSTO-211-H): 93%; Percent Inhibition (HGC-27): 77%; Percent Inhibition (T47D): 62%; Percent Inhibition (BT-474): 83%; Percent Inhibition (BT-549): 74%; Percent Inhibition (NCI-H2347): 73%; Percent Inhibition (NCI-H2405): 73%; Percent Inhibition (NCI-H524): 98%; Percent Inhibition (HPAF-II): 75%; Percent Inhibition (HT-1197): 85%
